{"source": "PubChem BioAssay (NCI)", "test_in_all_cases": "inhibition of tumour cell growth, NCI panel, 384-well format", "key": {"HOP-92 NSCLC": {"system": "HOP-92 NSCLC"}, "SN12C renal": {"system": "SN12C renal"}, "SNB-75 CNS": {"system": "SNB-75 CNS"}, "EKVX NSCLC": {"system": "EKVX NSCLC"}, "HT29 colon": {"system": "HT29 colon"}, "NCI-H522 lung": {"system": "NCI-H522 lung"}, "MALME-3M melanoma": {"system": "MALME-3M melanoma"}, "IGROV1 ovarian": {"system": "IGROV1 ovarian"}, "A549 NSCLC": {"system": "A549 NSCLC"}, "786-0 renal": {"system": "786-0 renal"}, "U251 glioblastoma": {"system": "U251 glioblastoma"}, "SW-620 colon": {"system": "SW-620 colon"}, "ACHN renal": {"system": "ACHN renal"}, "MCF7 breast": {"system": "MCF7 breast"}, "NCI-H460 NSCLC": {"system": "NCI-H460 NSCLC"}, "OVCAR-8 ovarian": {"system": "OVCAR-8 ovarian"}, "NCI-H226 lung": {"system": "NCI-H226 lung"}, "SK-OV-3 ovarian": {"system": "SK-OV-3 ovarian"}, "T-47D breast": {"system": "T-47D breast"}, "MDA-MB-468 breast": {"system": "MDA-MB-468 breast"}, "M14 melanoma": {"system": "M14 melanoma"}, "UACC-257 melanoma": {"system": "UACC-257 melanoma"}, "MOLT-4 leukemia": {"system": "MOLT-4 leukemia"}, "HCC-2998 colon": {"system": "HCC-2998 colon"}, "BT-549 breast": {"system": "BT-549 breast"}, "HCT-15 colon": {"system": "HCT-15 colon"}, "MDA-MB-231 breast": {"system": "MDA-MB-231 breast"}, "OVCAR-5 ovarian": {"system": "OVCAR-5 ovarian"}, "NCI-H322M lung": {"system": "NCI-H322M lung"}, "NCI/ADR-RES ovarian": {"system": "NCI/ADR-RES ovarian"}, "COLO 205 colon": {"system": "COLO 205 colon"}}, "note": "Where “and” joins values, the source holds several entries; their conditions need not be identical. Equal entries are not always repeated.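 Abbreviation: GI50, concentration required for 50% inhibition of growth. TGI denotes the concentration required for complete inhibition of growth.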"}
{"molecule": "COc1cccc2c1C(=O)c1c(O)c3c(c(O)c1C2=O)C[C@@](O)(C(=O)CO)C[C@@H]3OC1CC(N)C(O)C(C)O1", "note": "(stereo partly drawn)", "values": [{"measurement": "GI50", "setting": "HOP-92 NSCLC", "value": "24.6 nM and 35.9 nM and 66.9 nM"}, {"measurement": "GI50", "setting": "SN12C renal", "value": "35.8 nM and 31.4 nM and 33.5 nM"}, {"measurement": "TGI", "setting": "SN12C renal", "value": "162 nM and 166 nM and 181 nM"}, {"measurement": "GI50", "setting": "SNB-75 CNS", "value": "40.3 nM and 31.7 nM and 43.3 nM"}, {"measurement": "TGI", "setting": "SNB-75 CNS", "value": "126 nM and 100 nM and 174 nM"}, {"measurement": "GI50", "setting": "EKVX NSCLC", "value": "165 nM and 248 nM and 419 nM"}, {"measurement": "TGI", "setting": "EKVX NSCLC", "value": "704 nM and 1280 nM and 4790 nM"}, {"measurement": "GI50", "setting": "HT29 colon", "value": "114 nM and 119 nM and 106 nM"}, {"measurement": "TGI", "setting": "HT29 colon", "value": "490 nM and 303 nM and 263 nM"}, {"measurement": "GI50", "setting": "NCI-H522 lung", "value": "25.3 nM and 18 nM and 11.1 nM"}, {"measurement": "TGI", "setting": "NCI-H522 lung", "value": "75.6 nM and 69.7 nM and 117 nM"}, {"measurement": "GI50", "setting": "MALME-3M melanoma", "value": "38.1 nM and 45.6 nM and 54.7 nM"}, {"measurement": "TGI", "setting": "MALME-3M melanoma", "value": "153 nM and 166 nM and 191 nM"}, {"measurement": "GI50", "setting": "IGROV1 ovarian", "value": "72.5 nM and 46.7 nM"}, {"measurement": "TGI", "setting": "IGROV1 ovarian", "value": "1220 nM and 231 nM"}, {"measurement": "GI50", "setting": "A549 NSCLC", "value": "58.7 nM and 26.3 nM and 41.3 nM"}, {"measurement": "TGI", "setting": "A549 NSCLC", "value": "473 nM and 188 nM and 222 nM"}, {"measurement": "GI50", "setting": "786-0 renal", "value": "42.9 nM and 25.3 nM and 46.5 nM"}, {"measurement": "TGI", "setting": "786-0 renal", "value": "227 nM and 226 nM and 1070 nM"}, {"measurement": "GI50", "setting": "U251 glioblastoma", "value": "20 nM and 18.4 nM and 14.3 nM"}, {"measurement": "GI50", "setting": "SW-620 colon", "value": "23.3 nM and 44.8 nM and 19.6 nM"}, {"measurement": "TGI", "setting": "SW-620 colon", "value": "463 nM and 741 nM and 501 nM"}, {"measurement": "GI50", "setting": "ACHN renal", "value": "69.2 nM and 64 nM and 171 nM"}, {"measurement": "TGI", "setting": "ACHN renal", "value": "407 nM and 287 nM and 591 nM"}, {"measurement": "GI50", "setting": "MCF7 breast", "value": "34 nM and 22.8 nM and 19.1 nM"}, {"measurement": "TGI", "setting": "MCF7 breast", "value": "3210 nM and 1370 nM and 12200 nM"}, {"measurement": "GI50", "setting": "NCI-H460 NSCLC", "value": 9.14, "unit": "nM"}, {"measurement": "TGI", "setting": "NCI-H460 NSCLC", "value": "86.1 nM and 98.9 nM"}, {"measurement": "GI50", "setting": "OVCAR-8 ovarian", "value": "76.4 nM and 55.9 nM and 58 nM"}, {"measurement": "TGI", "setting": "OVCAR-8 ovarian", "value": "466 nM and 236 nM and 223 nM"}, {"measurement": "GI50", "setting": "NCI-H226 lung", "value": "34.4 nM and 36.8 nM and 75.2 nM"}, {"measurement": "TGI", "setting": "NCI-H226 lung", "value": "131 nM and 156 nM and 299 nM"}, {"measurement": "GI50", "setting": "SK-OV-3 ovarian", "value": "68.1 nM and 75.6 nM and 80.2 nM"}, {"measurement": "TGI", "setting": "SK-OV-3 ovarian", "value": "334 nM and 377 nM and 409 nM"}, {"measurement": "GI50", "setting": "T-47D breast", "value": "32.9 nM and 32 nM and 40.8 nM"}, {"measurement": "GI50", "setting": "MDA-MB-468 breast", "value": "26.2 nM and 14.8 nM and 12.7 nM"}, {"measurement": "TGI", "setting": "MDA-MB-468 breast", "value": "70 nM and 36.6 nM and 28.3 nM"}, {"measurement": "GI50", "setting": "M14 melanoma", "value": "51.6 nM and 44.6 nM and 37.1 nM"}, {"measurement": "TGI", "setting": "M14 melanoma", "value": "200 nM and 182 nM and 190 nM"}, {"measurement": "GI50", "setting": "UACC-257 melanoma", "value": "109 nM and 118 nM and 125 nM"}, {"measurement": "TGI", "setting": "UACC-257 melanoma", "value": "389 nM and 255 nM and 261 nM"}, {"measurement": "GI50", "setting": "MOLT-4 leukemia", "value": "4.08 nM and < 10 nM"}, {"measurement": "TGI", "setting": "MOLT-4 leukemia", "value": 7.81, "unit": "nM"}, {"measurement": "GI50", "setting": "HCC-2998 colon", "value": "35.6 nM and 17.6 nM"}, {"measurement": "TGI", "setting": "HCC-2998 colon", "value": "176 nM and 92.6 nM"}, {"measurement": "GI50", "setting": "BT-549 breast", "value": "23.3 nM and 18.2 nM and 13.6 nM"}, {"measurement": "TGI", "setting": "BT-549 breast", "value": "128 nM and 70.2 nM and 130 nM"}, {"measurement": "GI50", "setting": "HCT-15 colon", "value": "202 nM and 111 nM and 89 nM"}, {"measurement": "TGI", "setting": "HCT-15 colon", "value": "2130 nM and 1360 nM and 1490 nM"}, {"measurement": "GI50", "setting": "MDA-MB-231 breast", "value": "81.5 nM and 43.4 nM and 36.9 nM"}, {"measurement": "TGI", "setting": "MDA-MB-231 breast", "value": "523 nM and 275 nM and 318 nM"}, {"measurement": "GI50", "setting": "OVCAR-5 ovarian", "value": "194 nM and 260 nM and 159 nM"}, {"measurement": "TGI", "setting": "OVCAR-5 ovarian", "value": "1040 nM and 2130 nM and 720 nM"}, {"measurement": "GI50", "setting": "NCI-H322M lung", "value": "365 nM and 270 nM and 326 nM"}, {"measurement": "TGI", "setting": "NCI-H322M lung", "value": "985 nM and 914 nM and 1830 nM"}, {"measurement": "GI50", "setting": "NCI/ADR-RES ovarian", "value": "5900 nM and 7690 nM and 22600 nM"}, {"measurement": "TGI", "setting": "NCI/ADR-RES ovarian", "value": "24300 nM and 34300 nM and > 100000 nM"}, {"measurement": "GI50", "setting": "COLO 205 colon", "value": 17.8, "unit": "nM"}]}
